Patent US5503776A, “N-acylcarnosines and their use as antioxidants” (National Food Research Institute Ministry of Agriculture, …, priority 1991, dated 1996)
Peptide text beside a SMILES is read from it. * marks the point of attachment. Oleoyl = CCCCCCCC/C=C\CCCCCCCC(=O)*

Assays:
[1] = Emulsifying power in soybean oil/phosphate buffer, turbidity of lower layer O.D. (500 nm); format: physicochemical; conditions: 0.2% in 50 mM phosphate buffer (pH 7), 30° C.; for Relative emulsifying activity (%): one half volume soybean oil, ultrasonic wave, relative to N-oleoyl-carnosine taken as 100; for emulsifying power (in words): oil-water system, soybean oil
Procedure: The N-oleoyl-carnosine and the N-oleoyl-histidine obtained respectively in Example 1 and Example 2 were tested for emulsifying power. The emulsifying power was determined by dissolving each N-acyl compound in a concentration of 0.2% in 50 mM of phosphate buffer solution (pH 7), combining the resultant solution with one half in volume of soybean oil, subjecting the resultant mixture to a treatment with ultrasonic wave at 30° C., allowing the treated mixture to stand at rest at 30° C. for a prescribed time, and measuring the turbidity of the lower layer consequently separated in the mixture in terms of O.D. (500 nm). […] The magnitudes of emulsifying power given in Table 1 represent relative numerical values of emulsifying power based on the emulsifying power of N-oleoyl-carnosine taken as 100.

[2] = Repression of the radical chain autoxidation reaction of methyl linoleate (HPLC of methyl linoleate hydroperoxide); conditions: hexane/isopropyl alcohol (1:1 v/v), 100 mM methyl linoleate, 10 mM 2,2'-azo-bis(2,4-dimethyl valeronitrile), 37° C.; FIG. 8-10
Procedure: The N-oleoyl-carnosine, N-caprinoyl-carnosine and N-oleoyl-carnosine methyl ester obtained respectively in Examples 1, 3 and 4 were tested for antioxidizing power in terms of repression of the radical chain autoxidation reaction of methyl linoleate. Hexane/isopropyl alcohol (1:1 v/v) containing 100 mM of methyl linoleate, 10 mM of an oil-soluble generating agent (2,2'-azo-bis(2,4-dimethyl valeronitrile)), and various concentration of N-oleoyl-carnosine, N-caprinoyl-carnosine or N-oleoyl-carnosine methyl ester was kept incubated at 37° C., sampled at intervals along the course of time, and analyzed by high-performance liquid chromatography to follow changes in the amount of methyl linoleate hydroperoxide to be formed.

[3] = Repression of the radical chain autoxidizing reaction of a multilayer liposome (ferrous sulfate/ascorbic acid, TBA reaction); conditions: 10 μM compound in liposome, 0.1 mM ferrous sulfate, 1 mM ascorbic acid, pH 7.4, 37° C.; FIG. 11
Procedure: The N-oleoyl-carnosine and the N-oleoyl-histidine obtained respectively in Example 1 and Example 2 were tested for antioxidizing power in terms of the repression of the radical chain autoxidizing reaction of a multilayer liposome. A multilayer liposome was formed of 4 mM of egg yolk phosphatidylcholine, 0.4 mM of egg yolk phosphatidylcholine hydroperoxide,and 10 μM of N-oleoylcarnosine or N-oleoyl-histidine by the use of 10 mM trishydrochloric acid buffer solution (pH 7.4). The multilayer liposome and 0.1 mM of ferrous sulfate and 1 mM of ascorbic acid added thereto were incubated at 37° C., sampled at intervals along the course of time, subjected to the TBA reaction to induce coloration of malondialdehyde resulting from the hydrolysis of lipid peroxide, and analyzed by high-performance liquid chromatography to follow changes in the amount of the hydrolyzate.

With Casein the “Relative emulsifying activity (%)” value [1] was 24.3%.

With `CCCCCCCCCC(=O)N[C@@H](Cc1c[nH]cn1)C(=O)O` [N-caprinoyl histidine] the “antioxidizing power (formation of methyl linoleate hydroperoxide)” value [2] was “have antioxidizing powers”.

In the case of `CCCCCCCC/C=C\CCCCCCCC(=O)NCCC(=O)N[C@@H](Cc1cnc[nH]1)C(=O)OC` [N-oleoyl-carnosine methyl ester, N-Oleoyl carnosine methyl ester], the “antioxidizing power (formation of methyl linoleate hydroperoxide)” value [2] is reported as “possessed of antioxidizing power”.

With `CCCCCCCC/C=C\CCCCCCCC(=O)NCC(=O)NCC(=O)N[C@@H](Cc1c[nH]cn1)C(=O)O` [N-oleoyl glycylglycylhistidine] (Oleoyl-Gly-Gly-His-OH) the “antioxidizing power (formation of methyl linoleate hydroperoxide)” value [2] was “have antioxidizing powers”.

For `CCCCCCCC/C=C\CCCCCCCC(=O)N[C@@H](Cc1cnc[nH]1)C(=O)O` [N-oleoyl-His], the “antioxidizing power (formation of methyl linoleate hydroperoxide)” value [2] was “have antioxidizing powers”, the “antioxidizing power (malondialdehyde from lipid peroxide)” value [3] was “possessed of antioxidizing power” and the “Relative emulsifying activity (%)” value [1] was 82.1%. The “emulsifying power (in words)” value [1] was “possessed of outstanding emulsifying power”.

With `CCCCCCCC/C=C\CCCCCCCC(=O)NCCC(=O)N[C@@H](Cc1cnc[nH]1)C(=O)O` [N-oleoyl-carnosine] the “antioxidizing power (formation of methyl linoleate hydroperoxide)” value [2] was “possessed of antioxidizing power”, the “antioxidizing power (malondialdehyde from lipid peroxide)” value [3] was “possessed of antioxidizing power” and the “Relative emulsifying activity (%)” value [1] was 100%. For the same compound, the “emulsifying power (in words)” value [1] was “possessed of outstanding emulsifying power”.

With `CCCCCCCCCC(=O)NCCC(=O)NC(Cc1cnc[nH]1)C(=O)O` (centres unmarked) [N-caprinoyl-carnosine, N-Caprinoyl carnosine] the “antioxidizing power (formation of methyl linoleate hydroperoxide)” value [2] was “possessed of antioxidizing power”.

With `CCCCCCCC/C=C\CCCCCCCC(=O)N[C@@H](Cc1c[nH]cn1)C(=O)N[C@@H](CC(C)C)C(=O)O` [N-oleoyl histidylleucine] (Oleoyl-His-Leu-OH) the “antioxidizing power (formation of methyl linoleate hydroperoxide)” value [2] was “have antioxidizing powers”.
